The record followed here is paper PMC11336974 (2024).

Assay [1] concerns mutated miR-193a-3p (miR-193a-mut) (RNA, miRNA) AACUUCCUACAAAGUCCCAGU
The experiment in a line: CD spectra. The conditions noted are these: 190 mM NaCl; 20 mM HEPES pH 7.2, 1 mM EDTA, BSA, Tween-20; 200 µM Trp.

Assay [2] has as its system miR-193a-3p (RNA, miRNA) AACUGGCCUACAAAGUCCCAGU
The experiment in a line: ITC. The conditions noted are these: 190 mM NaCl; 20 mM HEPES pH 7.2, 1 mM EDTA, 37.5 µg/ml BSA, 0.02% Tween-20; apparent.

Assay [3] has as its system biotinylated miR-193a-3p (RNA, miRNA) AACUGGCCUACAAAGUCCCAGU
The experiment in a line: SPR (OpenSPR). The settings on record: 190 mM NaCl; 10 mM HEPES, 1 mM EDTA, 0.02% Tween-20; Trp 2, 20, 200 µM.

For assay [4], the system named is mutated miR-193a-3p (miR-193a-mut) (RNA, miRNA) AACUUCCUACAAAGUCCCAGU
The assay can be described thus: ITC. The settings on record: 190 mM NaCl; 20 mM HEPES pH 7.2, 1 mM EDTA, BSA, Tween-20; 200 µM Trp titrant.

The subject of assay [5] is miR-193a-3p (RNA, miRNA) AACUGGCCUACAAAGUCCCAGU
The experiment in a line: CD spectra. The settings on record: 190 mM NaCl; 20 mM HEPES pH 7.2, 1 mM EDTA, BSA, Tween-20; 100 nM RNA, 200 µM Trp.

The subject of assay [6] is miR-193a-5p (RNA, miRNA) UGGGUCUUUGCGGGCAAGAUGA
The assay can be described thus: CD spectra. The settings on record: 190 mM NaCl; 20 mM HEPES pH 7.2, 1 mM EDTA, BSA, Tween-20; 200 µM Trp.

The structures appear in SMILES notation.

For `N[C@@H](Cc1c[nH]c2ccccc12)C(=O)O`, the binding result is on record as “no” in assay [1]; “yes” in assay [3]; “no” in assay [4]; “yes” in assay [5]; “no” in assay [6]. Besides, in assay [2], the Kd was 5.3 µM.
